In experiment [1] the target is Arachidonate 5-lipoxygenase (Cavia porcellus). In words: In vitro inhibitory activity against 5-lipoxygenase by reduction of 5-hydroxyeicosatetraenoic acid (5-HETE) formed in guinea pig polymorphonuclear leukocytes (PMNs).
The target is the same in experiment [2]. The experiment is described as follows: In vitro inhibitory activity against 5-lipoxygenase by reduction of LTB4 formed in guinea pig polymorphonuclear leukocytes (PMNs).
In experiment [3] the target is Thromboxane-A synthase (Homo sapiens) (UniProt P24557). In words: Inhibitory concentration against human platelet thromboxane synthetase.
Sequence of Thromboxane-A synthase (Homo sapiens) (P24557 whole entry, looked up): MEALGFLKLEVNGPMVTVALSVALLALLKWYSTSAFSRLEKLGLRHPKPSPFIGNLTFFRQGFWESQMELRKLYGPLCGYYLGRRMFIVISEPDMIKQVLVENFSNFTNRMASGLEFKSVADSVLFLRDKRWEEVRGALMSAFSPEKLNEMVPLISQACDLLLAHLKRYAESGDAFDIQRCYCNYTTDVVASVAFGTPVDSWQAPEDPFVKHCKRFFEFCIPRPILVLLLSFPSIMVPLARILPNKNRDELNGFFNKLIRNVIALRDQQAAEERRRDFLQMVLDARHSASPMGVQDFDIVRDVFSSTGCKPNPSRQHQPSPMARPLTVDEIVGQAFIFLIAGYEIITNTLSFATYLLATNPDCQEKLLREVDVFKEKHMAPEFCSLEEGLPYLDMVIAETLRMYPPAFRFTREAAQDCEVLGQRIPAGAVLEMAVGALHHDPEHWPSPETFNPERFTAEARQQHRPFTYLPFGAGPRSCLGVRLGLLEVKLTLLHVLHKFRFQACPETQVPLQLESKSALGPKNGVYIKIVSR
Experiment [4] addresses Arachidonate 5-lipoxygenase (Cavia porcellus). In words: In vitro inhibitory activity against 5-lipoxygenase by reduction of 5-hydroxyeicosatetraenoic acid (5-HETE) formed in guinea pig polymorphonuclear leukocytes (PMNs). This is another data set of the same source.

On to `NC(=O)N(O)CC1=Cc2cc(OCCCc3ccccc3)ccc2OC1`, for which the IC50 – broadly, the concentration that inhibits the measured activity by half – in experiment [1] was 130 nM; in experiment [2] it was 160 nM. `CC(c1cc2ccccc2s1)N(O)C(N)=O` (racemic) [Leutrol] came in with a half-inhibitory concentration (IC50) in experiment [3] above 20000 nM.

As to `C=CCNC(=O)N(O)CC1=Cc2cc(Oc3ccccc3)ccc2OC1` [N'-allyl-N-hydroxy-N-[(6-phenoxy-2H-chromen-3-yl)methyl]urea], the concentration for half-maximal inhibition (IC50) in experiment [4] stood at 37 nM; in experiment [2] it was 44 nM.

Regarding `NC(=O)N(O)CC1=Cc2cc(OCc3ccccc3)ccc2OC1` [N-(6-Benzyloxy-2H-chromen-3-ylmethyl)-hydroxylurea], the results for the half-maximal inhibitory concentration (IC50) in experiment [4] and in experiment [2] were 440 nM and 380 nM, respectively. For `NC(=O)N(O)CC1=Cc2cc(OCC3CCCCC3)ccc2OC1` [N-(6-Cyclohexylmethoxy-2H-chromen-3-ylmethyl)-hydroxylurea], the IC50 in experiment [4] worked out at 1360 nM; in experiment [2], 1390 nM.

In the case of `CCCCCCOc1ccc2c(c1)C=C(CN(O)C(N)=O)CO2` [N-(6-Hexyloxy-2H-chromen-3-ylmethyl)-hydroxylurea], the values for the IC50 in experiment [1] and in experiment [2] were 280 nM and 340 nM, respectively. For `NC(=O)N(O)CC1=Cc2cc(OCc3ccc(C(F)(F)F)cc3)ccc2OC1` [N-[6-(4-Trifluoromethyl-benzyloxy)-2H-chromen-3-ylmethyl]-hydroxylurea], in that order: 430 nM and 490 nM. For `CC1(C)Oc2ccc(Oc3ccccc3)cc2C=C1CN(O)C(N)=O` [N-[(2,2-dimethyl-6-phenyoxy-2H-chromen-3-yl)methyl]-N-hydroxyurea], in that order: 310 nM and 440 nM. As for `NC(=O)N(O)CC1=Cc2cc(Br)ccc2OC1` [N-[(6-bromo-2H-chromen-3-yl)methyl]-N-hydroxyurea], the IC50 in experiment [4] and in experiment [2] was 1400 nM in each case. For `CC(C)NC(=O)N(O)CC1=Cc2cc(Oc3ccccc3)ccc2OC1` [N-hydroxy-N'-isopropyl-N-[(6-phenoxy-2H-chromen-3-yl)methyl]urea], the IC50 in experiment [1] is 49 nM; in experiment [2] it was 63 nM.

As to `CC1Oc2ccc(Oc3ccccc3)cc2C=C1CN(O)C(N)=O` (stereo not given) [N-hydroxy-N-[(2-methyl-6-phenyoxy-2H-chromen-3-yl)methyl]urea], the IC50 in experiment [1] came to 120 nM; in experiment [2] it was 87 nM. For `CCCCNC(=O)N(O)CC1=Cc2cc(Oc3ccccc3)ccc2OC1` [N-hydroxy-N-[(6-phenoxy-2H-chromen-3-yl)methyl]-N'-butylurea], the results for the IC50 in experiment [4] and in experiment [2] were 65 nM and 69 nM, respectively. For the molecule `NC(=S)N(O)CC1=Cc2cc(Oc3ccccc3)ccc2OC1` [N-hydroxy-N-[(6-phenoxy-2H-chromen-3-yl)methyl]thiourea], the IC50 in experiment [1] stood at 180 nM; in experiment [2], 200 nM. `NC(=O)N(O)CC1=Cc2cc(Oc3ccccc3)ccc2OC1` [N-hydroxy-N-[(6-phenoxy-2H-chromen-3-yl)methyl]urea] showed an IC50 in experiment [3] above 20000 nM. Take `NC(=O)N(O)CC1=Cc2cc(-c3ccccc3)ccc2OC1` [N-hydroxy-N-[(6-phenyl-2H-chromen-3-yl)methyl]urea]: the IC50 in experiment [4] came out at 240 nM; in experiment [2], 230 nM. Take `CCCC1Oc2ccc(Oc3ccccc3)cc2C=C1CN(O)C(N)=O` (stereo not given) [N-hydroxy-N-[(6-phenyoxy-2-propyl-2H-chromen-3-yl)methyl]urea]: the half-inhibitory concentration (IC50) was 880 nM in experiment [1] and 870 nM in experiment [2]. For `COc1ccc2c(c1)OCC(CN(O)C(N)=O)C2` (stereo not given) [N-hydroxy-N-[(7-methoxy-3,4-dihydro-2H-chromen-3-yl)methyl]urea], in that order: above 3000 nM and above 3000 nM.

`CNC(=O)N(O)CC1=Cc2cc(Oc3ccc(F)cc3)ccc2OC1` [N-{[6-(4-fluorophenoxy)-2H-chromen-3-yl]methyl}-N-hydroxy-N'-methylurea] had a concentration for half-maximal inhibition (IC50) in experiment [3] above 20000 nM. Take `CCOC(=O)CNC(=O)N(O)CC1=Cc2cc(Oc3ccccc3)ccc2OC1` [ethyl [({hydroxy[(6-phenoxy-2H-chromen-3-yl)methyl]amino}carbonyl)amino]acetate]: the half-inhibitory concentration (IC50) came to 68 nM in experiment [4] and 74 nM in experiment [2].
